We go through seven molecules from ChEMBL document CHEMBL5376010, “Formation of Trideuteromethylated Artifacts of Pyrrole-Containing Natural Products” (J Nat Prod, 2024).

For orientation: GI50 means the concentration that inhibits growth by half. Broadly, the IC50 is the concentration needed to halve the response being measured.

Data set [1] relates to Panel NCI-60 (60 carcinoma cell lines). Nature of the data set: Anticancer activity against human Panel NCI-60 (60 carcinoma cell lines) assessed as cell growth inhibition at 10 uM. Type of data set: functional, cell-based.
The species named for data set [2] is Homo sapiens. Nature of the data set: Selectivity ratio of IC50 for human HaCaT cells to IC50 for human UISO cells. The following applies: tested as the 2H-labelled form.
Data set [3] is filed under the species Homo sapiens. The data set can be described thus: Selectivity ratio of IC50 for human HaCaT cells to IC50 for human MKL-1 cells. The following applies: tested as the 2H-labelled form.
The species named for data set [4] is Homo sapiens. The data set can be described thus: Selectivity ratio of IC50 for human HaCaT cells to IC50 for human MCC13 cells. The following applies: tested as the 2H-labelled form.
The species entered for data set [5] is Homo sapiens. The data set can be described thus: Selectivity ratio of IC50 for human HaCaT cells to IC50 for human WaGa cells. The following applies: tested as the 2H-labelled form.
Data set [6] deals with Panel NCI-60 (60 carcinoma cell lines). The data set can be described thus: Anticancer activity against human Panel NCI-60 (60 carcinoma cell lines) assessed as growth inhibition. Type of data set: functional.
The species entered for data set [7] is Homo sapiens. Nature of the data set: Selectivity ratio of IC50 for human HaCaT cells to IC50 for human MCC26 cells. The following applies: tested as the 2H-labelled form.
Data set [8] is described as follows: Anticancer activity against human UISO cells assessed as inhibition of cell growth. Type of data set: functional, cell-based.
The nature of data set [9]: Anticancer activity against human MCC26 cells assessed as inhibition of cell growth. Type of data set: functional, cell-based.
Data set [10] is described as follows: Anticancer activity against human MKL-1 cells assessed as inhibition of cell growth. It is filed as functional, cell-based.
A short description of data set [11]: Anticancer activity against human MCC13 cells assessed as inhibition of cell growth. It is filed as functional, cell-based.
A short description of data set [12]: Cytotoxicity against human HaCaT cells assessed as inhibition of cell growth. It is filed as toxicity, cell-based.
Data set [13] in a line: Anticancer activity against human WaGa cells assessed as inhibition of cell growth. Type of data set: functional, cell-based.

Active and inactive are the calls of the source. No cut-off for these calls is given here.

Consider `Cn1cnc(S[C@H]2[C@H]3C(=O)C=C4S[C@H]5C[C@]42C2=C(N5)C(=O)c4[nH]cc5c4C2=[N+]3CC5)c1C[C@H](N)C(=O)O`, for which the result in data set [1] was inactive.

Regarding `Cc1[nH]c2c3c1CC[N+]1=C3C3=C(N[C@@H]4C[C@@]35C(=CC(=O)[C@@H]1[C@@H]5O)S4)C2=O`, the Ratio IC50 came out at 3 in the data set filed under Homo sapiens [2]; 13 in the data set listed under Homo sapiens [3]; 3 in the data set listed under Homo sapiens [4]; 13 in the data set filed under Homo sapiens [5]; 3 in the data set listed under Homo sapiens [7]. Moreover, the concentration for 50% growth inhibition (GI50) in [6] was 5.75 µM.

For `O=C1C(Br)=CC2(C=C1Br)CCNC1=C2C2=NCCc3c[nH]c(c32)C1=O` [DISCORHABDIN C], the concentration for 50% growth inhibition (GI50) in data set [6] came out at 0.13 µM.

For the molecule `Cc1[nH]c2c3c1CC[N+]1=C3C3=C(N[C@@H]4C[C@@]35C(=CC(=O)[C@@H]1[C@@H]5Sc1ncn(C)c1C[C@H](N)C(=O)O)S4)C2=O`, the outcome in [1] (tested as the 2H-labelled form) was inactive.

In the case of `O=C([O-])C(F)(F)F.[2H]C([2H])([2H])c1[nH]c2c3c1CC[N+]1=C3C3=C(N[C@@H]4C[C@@]35C(=CC(=O)[C@@H]1[C@@H]5O)S4)C2=O`, the 50% inhibitory concentration (IC50) amounted to 1.41 µM in data set [8]; 1.99 µM in data set [9]; 0.25 µM in [10]; 2.5 µM in data set [11]; 6.2 µM in data set [12]; 0.72 µM in data set [13]. The GI50 in data set [6] was 1.65 µM.

For the molecule `O=C1C2=C3C4=[N+](CCc5c[nH]c1c54)[C@@H]1C(=O)C=C4S[C@@H](C[C@@]43[C@H]1O)N2` [DISCORHABDIN L], in data set [6], the 50% growth inhibitory concentration (GI50) worked out at 0.79 µM.

`O=C1C(Br)=CC2(C=C1Br)CCNC1=C2C2=NCCc3c(Br)[nH]c(c32)C1=O`: the concentration for 50% growth inhibition (GI50) in data set [6] was 0.42 µM.
